Read-outs that look alike come from different tables or passages of the source.
Columns and labels:
RVFV = assay: microbe, parasite or virus in culture; format: cell-based; details: Rift Valley fever virus, SAEC, 24 h
RVFV strain MP12 [1] = format: cell-based, Rift Valley fever virus
EBOV (Zaire) = assay: microbe, parasite or virus in culture; format: cell-based, Zaire ebolavirus
in vitro [2] = details: human
MARV (Ci67) = assay: microbe, parasite or virus in culture; format: cell-based, Lake Victoria marburgvirus
RVFV strain MP12 [3] = assay: microbe, parasite or virus in culture; format: cell-based, Rift Valley fever virus; details: for EC50: Rift Valley fever virus, HeLa, 24 h
[4] = test system: Golgi complex in HeLa-G cells; assay: cells; format: cell-based, human; details: for EC50: Homo sapiens, 12 h, read-out: GC50 (effective concentration of compound that disrupts 50% of the Golgi complexes)
LASV (Josiah) = assay: microbe, parasite or virus in culture; format: cell-based, Lassa virus; details: for EC50: Mammarenavirus lassaense, HeLa, 24 h
VEEV (1CSH3) = assay: microbe, parasite or virus in culture; format: cell-based, Venezuelan equine encephalomyelitis virus; details: for EC50: Venezuelan equine encephalitis virus, HeLa, 20 h
[5] = test system: HeLa cells expressing H3-pS10
RVFV RNA = format: cell-based, Rift Valley fever virus
[6] = test system: tubulin / microtubule organization in HeLa cells; format: cell-based, human
in vitro [7] = details: human; remark: listed apart in the source
[8] = Orthomarburgvirus marburgense, HeLa, 48 h

Row | SMILES | EC50 (RVFV) [µM] | reduction of N and Gn expression (RVFV strain MP12 [1]) | time of compound addition PI at which 50% of infection is rescued/recovered (RVFV strain MP12 [1]) [h] | EC50 (EBOV (Zaire); Zaire ebolavirus, HeLa, 48 h) [µM] | CC50 (in vitro [2]) [µM] | EC50 (MARV (Ci67); [8]) [µM] | EC50 (RVFV strain MP12 [3]) [µM] | %GNL (lowest % of Golgi number achievable at the compound's highest concentration) [4] [%] | EC50 [4] [µM] | EC50 (LASV (Josiah)) [µM] | EC50 (VEEV (1CSH3)) [µM] | further results
1 | Cc1ccc(NC(=O)Nc2cc(NC(=O)c3ccc(F)cc3)ccc2N2CCCC2)c(Cl)c1 [F694-1532] | 23.5 | significantly reduced | 8 | 118 | 51.3 | 143 | 20 | 19.5 | 35.3 | 80.4 | 15.2 | –
2 | COc1ccccc1CNC(=O)C1c2c(n(C)c3ccccc23)SCC(=O)N1c1ccc(OC)c(OC)c1 (centres unmarked) [G202-0362] | 11.9 | ~10% | > 10 | 16 | – | 34 | 13.6 | 61.2 | 23.7 | – | 48.9 | reduction of S-Gn (cell surface exposed Gn) expression (RVFV strain MP12 [1]): approximately 90%; EC50 (EBOV (Zaire)): 16.1 µM; effects on cell division in uninfected cells [5]: no observable effects; EC50 (MARV (Ci67)): 34.1 µM; viral RNA accumulation in the supernatants (RVFV RNA): 28%; viral RNA accumulation inside the cells (RVFV RNA): 95%; toxic effects on the HeLa cells (HeLa cells): no toxic effects
3 | COc1ccc(CN2C(=O)C(=O)c3cc(C)ccc32)cc1 [D011-2120] | 62.4 | ~10% | > 10 | 54.1 | 98 | 87.1 | 61.5 | 16.4 | 38.2 | 46.8 | 41.6 | reduction of S-Gn (cell surface exposed Gn) expression (RVFV strain MP12 [1]): approximately 90%; antiviral activity against EBOV in secondary screening (heat map) (EBOV (Zaire)): high activity; number of cells expressing H3-pS10 (mitotic cells) vs mock-treated [5]: significant increase; concentration above which compound was toxic to the cells ([5]; human): > 25 µM; tubulin ridge value relative to BFA- or mock-treated cells [6]: approximately half; antiviral activity against MARV in secondary screening (heat map) (MARV (Ci67)): high activity; antiviral activity against RVFV in secondary screening (heat map) (RVFV strain MP12 [3]): moderate activity; antiviral activity against LASV in secondary screening (heat map) (LASV (Josiah)): moderate activity; viral RNA accumulation in the supernatants (RVFV RNA): 9%; viral RNA accumulation inside the cells (RVFV RNA): 75%; antiviral activity against VEEV in secondary screening (heat map) (VEEV (1CSH3)): high activity
4 | Cl.N [NH4Cl, reference compound] | – | – | – | – | – | – | – | – | – | – | – | RVFV infection inhibition when added 2 h PI (RVFV strain MP12 [1]): not at the later time point; RVFV infection inhibition when added at early time points (−2 h or 0 h) (RVFV strain MP12 [1]): inhibited RVFV infection
5 | COC(=O)Nc1nc2ccc(C(=O)c3cccs3)cc2[nH]1 [nocodazole, reference compound] | – | – | – | – | – | – | – | – | – | – | – | number of cells expressing H3-pS10 (mitotic cells) vs mock-treated [5]: significant increase; tubulin ridge value relative to BFA- or mock-treated cells [6]: approximately half
6 | NC(=O)c1ncn([C@@H]2O[C@H](CO)[C@@H](O)[C@H]2O)n1 [Ribavirin, ribavirin, reference compound] | 29.5 | – | – | 60.1 | – | 82.2 | 27.2 | 87.2 | – | 6.8 | 75 | –
7 | CC1(C(=O)NCc2ccccc2)Cn2c(cc3occc32)C(=O)N1Cc1ccc(Cl)cc1 (centres unmarked) [C795-0925] | 12.3 | significantly reduced | 9 | 46.6 | 111 | 57.4 | 14.4 | 63.4 | 36.9 | 81.4 | 10.2 | antiviral activity against EBOV in secondary screening (heat map) (EBOV (Zaire)): moderate antiviral activity; CC50 (in vitro [7]): 56.7 µM; antiviral activity against MARV in secondary screening (heat map) (MARV (Ci67)): moderate antiviral activity; antiviral activity against RVFV in secondary screening (heat map) (RVFV strain MP12 [3]): highest activity; antiviral activity against LASV in secondary screening (heat map) (LASV (Josiah)): moderate antiviral activity; antiviral activity against VEEV in secondary screening (heat map) (VEEV (1CSH3)): highest activity

— article PMC4140764 (PLoS Neglected Tropical Diseases, 2014)
